In patent US9260425B2 (Genetech, Inc., priority 2011, dated 2016):

What follows are compounds tested against Pim-1 (Homo sapiens (Human), UniProt P11309) (assay: Pim kinase binding activity assay (Example 901), PIM-1 enzyme, Caliper microfluidic peptide phosphorylation). Settings: 20 pM PIM-1, 10 μM ATP, 1 μM FAM-peptide, 90 minutes at room temperature.
Type: biochemical
Outline: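 PIM-1 at 20 pM phosphorylated 1 μM FAM-labelled Pim peptide with 10 μM ATP in HEPES pH 7.2, MgCl2, Tween 20 and DTT for 90 min at room temperature. EDTA stopped the reaction, and product and substrate were resolved by microfluidic electrophoresis (ex 488/em 530 nm). Ki was derived from substrate conversion.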

Chain of Pim-1 (P11309 whole entry): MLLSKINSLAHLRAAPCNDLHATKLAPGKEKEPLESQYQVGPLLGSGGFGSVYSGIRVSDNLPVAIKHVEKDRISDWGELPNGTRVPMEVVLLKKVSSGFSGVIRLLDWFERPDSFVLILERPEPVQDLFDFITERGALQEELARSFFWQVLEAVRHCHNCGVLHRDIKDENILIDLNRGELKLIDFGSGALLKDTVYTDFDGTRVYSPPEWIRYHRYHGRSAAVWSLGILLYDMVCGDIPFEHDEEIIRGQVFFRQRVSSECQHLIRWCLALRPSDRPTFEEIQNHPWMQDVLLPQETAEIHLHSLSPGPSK

Row | SMILES | Ki
1 | Cn1cc(-c2cc3c(-c4cccc(N5CCC[C@@](C)(O)C5)n4)n[nH]c3cn2)cn1 [Example 424, (R)-3-methyl-1-(6-(5-(1-methyl-1H-pyrazol-4-yl)-1H-pyrazolo[3,4-c]pyridin-3-yl)pyridin-2-yl)piperidin-3-ol] | 0.073 nM
2 | Cc1ccc(-c2n[nH]c3cnc(-c4cnn(C)c4)cc23)nc1N1CC(N2CCNC(=O)C2)C1 [Example 425, 4-(1-(3-methyl-6-(5-(1-methyl-1H-pyrazol-4-yl)-1H-pyrazolo[3,4-c]pyridin-3-yl)pyridin-2-yl)azetidin-3-yl)piperazin-2-one] | 0.618 nM
3 | Cc1ccc(-c2n[nH]c3cnc(-c4cccnc4)cc23)nc1N1CC(N2CCNC(=O)C2)C1 [Example 426, 4-(1-(3-methyl-6-(5-(pyridin-3-yl)-1H-pyrazolo[3,4-c]pyridin-3-yl)pyridin-2-yl)azetidin-3-yl)piperazin-2-one] | 0.46 nM
4 | C=C(C)c1ccc(-c2n[nH]c3cnc(-c4cnn(CC)c4)cc23)nc1N1CCC[C@H](N)C1 [Example 427, (S)-1-(6-(5-(1-ethyl-1H-pyrazol-4-yl)-1H-pyrazolo[3,4-c]pyridin-3-yl)-3-(prop-1-en-2-yl)pyridin-2-yl)piperidin-3-amine] | 0.016 nM
5 | Cc1ccc(-c2n[nH]c3cnc(-c4cnn(C)c4)cc23)nc1N1CCN(CCS(C)(=O)=O)C(C)(C)C1 [Example 428, 3-(6-(3,3-dimethyl-4-(2-(methylsulfonyl)ethyl)piperazin-1-yl)-5-methylpyridin-2-yl)-5-(1-methyl-1H-pyrazol-4-yl)-1H-pyrazolo[3,4-c]pyridine] | 0.112 nM
6 | CCc1ccc(-c2n[nH]c3cnc(-c4cnn(C)c4)cc23)nc1N1CCC[C@H](N)C1 [Example 429, (S)-1-(3-ethyl-6-(5-(1-methyl-1H-pyrazol-4-yl)-1H-pyrazolo[3,4-c]pyridin-3-yl)pyridin-2-yl)piperidin-3-amine] | 0.022 nM
7 | CCn1cc(-c2cc3c(-c4ccc(C)c(N5CCC[C@H](N)C5)n4)n[nH]c3cn2)cn1 [Example 430, (S)-1-(6-(5-(1-ethyl-1H-pyrazol-4-yl)-1H-pyrazolo[3,4-c]pyridin-3-yl)-3-methylpyridin-2-yl)piperidin-3-amine] | 0.027 nM
8 | C=Cc1ccc(-c2n[nH]c3cnc(-c4cnn(CC)c4)cc23)nc1N1CCC[C@H](N)C1 [Example 431, (S)-1-(6-(5-(1-ethyl-1H-pyrazol-4-yl)-1H-pyrazolo[3,4-c]pyridin-3-yl)-3-vinylpyridin-2-yl)piperidin-3-amine] | 0.023 nM
9 | CCn1cc(-c2cc3c(-c4ccc(C)c(N5CCNCC5)n4)n[nH]c3cn2)cn1 [Example 432, 5-(1-ethyl-1H-pyrazol-4-yl)-3-(5-methyl-6-(piperazin-1-yl)pyridin-2-yl)-1H-pyrazolo[3,4-c]pyridine] | 0.055 nM
10 | Cc1ccc(-c2n[nH]c3cnc(-c4cnn(C)c4)cc23)nc1N1CCC[C@H](N)C1 [Example 433, (S)-1-(3-methyl-6-(5-(1-methyl-1H-pyrazol-4-yl)-1H-pyrazolo[3,4-c]pyridin-3-yl)pyridin-2-yl)piperidin-3-amine] | 0.013 nM
11 | OC1CN(c2cccc(-c3n[nH]c4cnc(-c5cccnc5)cc34)n2)CCC1F (stereo not shown) [Example 435, 4-fluoro-1-(6-(5-(pyridin-3-yl)-1H-pyrazolo[3,4-c]pyridin-3-yl)pyridin-2-yl)piperidin-3-ol] | 0.089 nM
12 | COc1cncc(-c2cc3c(-c4cccc(N5CCNCC5)n4)n[nH]c3cn2)c1 [Example 436, 5-(5-methoxypyridin-3-yl)-3-(6-(piperazin-1-yl)pyridin-2-yl)-1H-pyrazolo[3,4-c]pyridine] | 0.021 nM
13 | CNc1cccc(-c2n[nH]c3cnc(-c4cccnc4)cc23)n1 [Example 437, N-methyl-6-(5-(pyridin-3-yl)-1H-pyrazolo[3,4-c]pyridin-3-yl)pyridin-2-amine] | 0.409 nM
14 | CCc1cncc(-c2cc3c(-c4cccc(N5CCNCC5)n4)n[nH]c3cn2)c1 [Example 438, 5-(5-ethylpyridin-3-yl)-3-(6-(piperazin-1-yl)pyridin-2-yl)-1H-pyrazolo[3,4-c]pyridine] | 0.004 nM
15 | Cn1cc(-c2cc3c(-c4ccnc(C5CCNCC5)n4)n[nH]c3cn2)cn1 [Example 439, 5-(1-methyl-1H-pyrazol-4-yl)-3-(2-(piperidin-4-yl)pyrimidin-4-yl)-1H-pyrazolo[3,4-c]pyridine] | 0.571 nM
16 | Cc1ccc(-c2n[nH]c3cnc(-c4cnn(C)c4)cc23)nc1N1CCN(C)CC1 [Example 440, 5-(1-methyl-1H-pyrazol-4-yl)-3-(5-methyl-6-(4-methylpiperazin-1-yl)pyridin-2-yl)-1H-pyrazolo[3,4-c]pyridine] | 0.029 nM
17 | Cc1ccc(-c2n[nH]c3cnc(-c4cnn(C)c4)cc23)nc1N1CCC[C@H](O)C1 [Example 441, (S)-1-(3-methyl-6-(5-(1-methyl-1H-pyrazol-4-yl)-1H-pyrazolo[3,4-c]pyridin-3-yl)pyridin-2-yl)piperidin-3-ol] | 0.062 nM
18 | CCn1cc(-c2cc3c(-c4ccc(C)c(N5CCC[C@@H](N)C5)n4)n[nH]c3cn2)cn1 [Example 443, (R)-1-(6-(5-(1-ethyl-1H-pyrazol-4-yl)-1H-pyrazolo[3,4-c]pyridin-3-yl)-3-methylpyridin-2-yl)piperidin-3-amine] | 0.1 nM
19 | CCn1cc(-c2cc3c(-c4cccc(N5CCC[C@H](N)C5)n4)n[nH]c3cn2)cn1 [Example 445, (S)-1-(6-(5-(1-ethyl-1H-pyrazol-4-yl)-1H-pyrazolo[3,4-c]pyridin-3-yl)pyridin-2-yl)piperidin-3-amine] | 0.031 nM
20 | CCn1cc(-c2cc3c(-c4cccc(N5CCNC(C)(C)C5)n4)n[nH]c3cn2)cn1 [Example 446, 3-(6-(3,3-dimethylpiperazin-1-yl)pyridin-2-yl)-5-(1-ethyl-1H-pyrazol-4-yl)-1H-pyrazolo[3,4-c]pyridine] | 0.029 nM
21 | CCn1cc(-c2cc3c(-c4cccc(N5CCNCC(F)(F)C5)n4)n[nH]c3cn2)cn1 [Example 447, 3-(6-(6,6-difluoro-1,4-diazepan-1-yl)pyridin-2-yl)-5-(1-ethyl-1H-pyrazol-4-yl)-1H-pyrazolo[3,4-c]pyridine] | 0.029 nM
22 | CC(C)(C)n1cc(-c2cc3c(-c4cccc(N5CCNCC5)n4)n[nH]c3cn2)cn1 [Example 448, 5-(1-tert-butyl-1H-pyrazol-4-yl)-3-(6-(piperazin-1-yl)pyridin-2-yl)-1H-pyrazolo[3,4-c]pyridine] | 0.376 nM

Further lines, results first:

Row | Ki | SMILES
23 | 0.191 nM | Cn1cc(-c2cc3c(-c4ccc(Br)c(N5CCOCC5)n4)n[nH]c3cn2)cn1 [Example 449, 4-(3-bromo-6-(5-(1-methyl-1H-pyrazol-4-yl)-1H-pyrazolo[3,4-c]pyridin-3-yl)pyridin-2-yl)morpholine]
24 | 0.026 nM | CCn1cc(-c2cc3c(-c4ccc(Br)c(N5C[C@@H](N)C[C@@H](F)C5)n4)n[nH]c3cn2)cn1 [Example 454, (3S,5R)-1-(3-bromo-6-(5-(1-ethyl-1H-pyrazol-4-yl)-1H-pyrazolo[3,4-c]pyridin-3-yl)pyridin-2-yl)-5-fluoropiperidin-3-amine]
25 | 0.028 nM | CCn1cc(-c2cc3c(-c4ccc(Br)c(N5C[C@H](N)C[C@@H](F)C5)n4)n[nH]c3cn2)cn1 [Example 455, (3R,5R)-1-(3-bromo-6-(5-(1-ethyl-1H-pyrazoI-4-yl)-1H-pyrazolo[3,4-c]pyridin-3-yl)pyridin-2-yl)-5-fluoropiperidin-3-amine]
26 | 0.03 nM | Cn1cc(-c2cc3c(-c4ccc(Br)c(N5C[C@@H](N)C[C@@H](F)C5)n4)n[nH]c3cn2)cn1 [Example 456, (3S,5R)-1-(3-bromo-6-(5-(1-methyl-1H-pyrazol-4-yl)-1H-pyrazolo[3,4-c]pyridin-3-yl)pyridin-2-yl)-5-fluoropiperidin-3-amine]
27 | 0.049 nM | CCn1cc(-c2cc3c(-c4cc(C)cc(N5CCCNCC5)n4)n[nH]c3cn2)cn1 [Example 457, 3-(6-(1,4-diazepan-1-yl)-4-methylpyridin-2-yl)-5-(1-ethyl-1H-pyrazol-4-yl)-1H-pyrazolo[3,4-c]pyridine]
28 | 0.265 nM | CCn1cc(-c2cc3c(-c4cccc(N5CCC[C@@](C)(O)C5)n4)n[nH]c3cn2)cn1 [Example 460, (R)-1-(6-(5-(1-ethyl-1H-pyrazol-4-yl)-1H-pyrazolo[3,4-c]pyridin-3-yl)pyridin-2-yl)-3-methylpiperidin-3-ol]
29 | 0.0593 nM | CCn1cc(-c2cc3c(-c4cccc(NC5CCCC(N)C5)n4)n[nH]c3cn2)cn1 (stereo not shown) [Example 461, N1-(6-(5-(1-ethyl-1H-pyrazol-4-yl)-1H-pyrazolo[3,4-c]pyridin-3-yl)pyridin-2-yl)cyclohexane-1,3-diamine]
30 | 0.084 nM | CCn1cc(-c2cc3c(-c4cccc(N5CCNC(CO)C5)n4)n[nH]c3cn2)cn1 (stereo not shown) [Example 463, (4-(6-(5-(1-ethyl-1H-pyrazol-4-yl)-1H-pyrazolo[3,4-c]pyridin-3-yl)pyridin-2-yl)piperazin-2-yl)methanol]
31 | 0.0721 nM | CCn1cc(-c2cc3c(-c4cccc(N5CCC[C@](C)(O)C5)n4)n[nH]c3cn2)cn1 [Example 464, (S)-1-(6-(5-(1-ethyl-1H-pyrazol-4-yl)-1H-pyrazolo[3,4-c]pyridin-3-yl)pyridine-2-yl)-3-methylpiperidin-3-ol]
32 | 0.389 nM | CCn1cc(-c2cc3c(-c4nc(N5CCC[C@H](N)C5)ccc4Cl)n[nH]c3cn2)cn1 [Example 466, (S)-1-(5-chloro-6-(5-(1-ethyl-1H-pyrazol-4-yl)-1H-pyrazolo[3,4-c]pyridin-3-yl)pyridin-2-yl)piperidin-3-amine]
33 | 0.093 nM | FC(F)(F)c1cncc(-c2cc3c(-c4cccc(N5CCNCC5)n4)n[nH]c3cn2)c1 [Example 467, 3-(6-(piperazin-1-yl)pyridin-2-yl)-5-(5-(trifluoromethyl)pyridin-3-yl)-1H-pyrazolo[3,4-c]pyridine]
34 | 0.06 nM | CCn1cc(-c2cc3c(-c4cccc(N5CCNC(C(F)(F)F)C5)n4)n[nH]c3cn2)cn1 (stereo not shown) [Example 468, 5-(1-ethyl-1H-pyrazol-4-yl)-3-(6-(3-(trifluoromethyl)piperazin-1-yl)pyridin-2-yl)-1H-pyrazolo[3,4-c]pyridine]
